In PubChem BioAssay AID651650 (Sanford-Burnham Center for Chemical Genomics, 2012):
Activity calls are given as the source filed them.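 The calls were made as follows: active = mean IC50 below 20 µM in each of the two panels, so potent in both; inactive = the rest.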

Target: Neuropilin-1 (Homo sapiens) (UniProt O14786)
Test: blockers of CendR peptide binding to NRP-1 – biochemical, FP and AlphaScreen panel, dose response (AID 651650)
Conditions: NRP-1 b1b2 / RPARPAR peptide binding, FP or AlphaScreen; FP, mean of runs

Neuropilin-1 (Homo sapiens), sequence (O14786 whole entry, looked up): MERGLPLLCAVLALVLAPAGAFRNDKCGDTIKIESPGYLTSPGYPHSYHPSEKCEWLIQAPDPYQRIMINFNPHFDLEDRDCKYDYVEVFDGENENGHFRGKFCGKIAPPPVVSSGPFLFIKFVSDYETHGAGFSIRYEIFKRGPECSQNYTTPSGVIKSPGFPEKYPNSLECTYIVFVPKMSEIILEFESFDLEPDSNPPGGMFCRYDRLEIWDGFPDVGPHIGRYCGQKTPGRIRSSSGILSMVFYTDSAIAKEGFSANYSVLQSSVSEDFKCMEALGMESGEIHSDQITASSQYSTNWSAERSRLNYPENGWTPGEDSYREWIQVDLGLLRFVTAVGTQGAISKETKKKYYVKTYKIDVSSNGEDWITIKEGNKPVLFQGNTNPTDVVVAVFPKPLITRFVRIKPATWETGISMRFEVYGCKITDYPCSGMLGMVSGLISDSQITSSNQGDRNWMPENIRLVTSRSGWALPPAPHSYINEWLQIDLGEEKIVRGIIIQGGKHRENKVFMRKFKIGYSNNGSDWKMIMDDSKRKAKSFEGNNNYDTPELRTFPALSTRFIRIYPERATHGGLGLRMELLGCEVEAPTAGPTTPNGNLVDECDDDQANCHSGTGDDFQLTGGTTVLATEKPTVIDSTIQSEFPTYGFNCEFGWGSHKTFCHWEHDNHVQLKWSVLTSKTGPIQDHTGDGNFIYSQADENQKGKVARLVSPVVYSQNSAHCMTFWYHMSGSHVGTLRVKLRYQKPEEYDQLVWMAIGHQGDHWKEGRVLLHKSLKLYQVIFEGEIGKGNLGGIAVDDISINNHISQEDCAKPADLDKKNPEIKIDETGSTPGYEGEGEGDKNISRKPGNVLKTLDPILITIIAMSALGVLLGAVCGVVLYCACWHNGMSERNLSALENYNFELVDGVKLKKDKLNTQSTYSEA

Compound | IC50
O=C(NCCN1CCOCC1)c1cc(-c2ccc(F)cc2)on1 | > 95 µM (inactive)
O=C(CCC(=O)Nc1ccccc1Cl)NN=C1CCCC1 | > 95 µM (inactive)
CNC(=O)NC(=O)C(C)OC(=O)c1c(C)noc1C (stereo not drawn) | > 95 µM (inactive)
CCOC(=O)Cc1cnc(NC(=O)NC(C(=O)OCC)(c2ccccc2)C(F)(F)F)s1 (stereo not drawn) | > 95 µM (inactive)
COc1ccc(-c2csc(NCCc3nc4cc(C(=O)NCCCO)ccc4n3Cc3ccc(C)cc3)n2)cc1 | > 95 µM (inactive)
Cc1c(NP(=O)(C(C)(C)C)C(C)(C)C)c(=O)n(-c2ccccc2)n1C | > 95 µM (inactive)
Cc1ccccc1Nc1nc(N)nc(COC(=O)CC2CC3CCC2C3)n1 (stereo not drawn) | > 95 µM (inactive)
O=C(NNC(=O)C1CCN(c2ncccn2)CC1)c1ccc(F)cc1 | > 95 µM (inactive)
COC(=O)c1c(NC(=O)CN(c2ccccc2)S(C)(=O)=O)sc2c1CCCC2 | > 95 µM (inactive)
COC(=O)c1ccc(Cn2nnc3c(=O)[nH]c(C4CCCN(S(=O)(=O)c5cccc(Cl)c5)C4)nc32)cc1 (stereo not drawn) | > 95 µM (inactive)
COc1ccc(Cn2c3ccc(OC)cc3c3nc4ccccc4nc32)cc1 | > 95 µM (inactive)
CC(=O)Nc1ccc2nc3c(=O)n(C)c(=O)n(C)c3nc2c1 | > 95 µM (inactive)
CSc1nc2ccccc2c(=O)n1C1CCOC(C)(C)C1 (stereo not drawn) | > 95 µM (inactive)
CCCNC(=S)Nc1cccc(C(F)(F)F)c1 | > 95 µM (inactive)
CN(C)CCn1c(=O)n(-c2ccc(F)cc2)c(=O)c2c3c(sc21)CCCCC3 | > 95 µM (inactive)
Cc1csc(NC(C)c2nc3cc(C(F)(F)F)ccc3n2CCCO)n1 (stereo not drawn) | > 95 µM (inactive)
CCN(C[C@H]1N[C@@](CC)(C(=O)OC)[C@H]2C(=O)N(C)C(=O)[C@@H]12)S(=O)(=O)c1ccc(OC)cc1 | > 95 µM (inactive)
O=C1CCCN1CCCNc1nc(NCc2cccs2)nc2ccsc12 | > 95 µM (inactive)
CCc1onc(C)c1C(=O)Nc1cc(C)ccc1OC | > 95 µM (inactive)
Cn1cnc2cc(NC(=O)c3ccco3)ccc21 | > 95 µM (inactive)
O=C(CCCNC(=O)/C(=C\c1ccc(F)cc1)NC(=O)c1ccccc1)OCc1ccccc1 | > 95 µM (inactive)
CC(C)(C)N(NC(=O)Nc1ccc(Cl)cc1)C(=O)c1ccccc1 | > 95 µM (inactive)
O=C(COc1ccc(Br)cc1CO)Nc1ccc(F)cc1 | > 95 µM (inactive)

Same assay, conditions: NRP-1 b1b2 / RPARPAR peptide binding, FP or AlphaScreen; FP, run 1; individual panel run IC50

Compound | IC50 [µM]
CCOC(=O)N1CCN(C(=O)c2cc3n(n2)C(C(F)(F)F)CC(c2ccc4c(c2)OCO4)N3)CC1 (stereo not drawn) | > 95
O=C(CSc1nc(O)c(Cc2ccccc2)c(=O)n1-c1ccccc1)N1CCOCC1 | > 95
CC(C)(C)n1nc(-c2ccc(F)cc2)c2c(N)ncnc21 | > 95
COc1ccc(-c2cc(C)no2)cc1S(=O)(=O)NCc1cccc(C)c1 | > 95
Cc1cnc(C(=O)OCC(=O)Nc2sc3c(c2C#N)CCC3)cn1 | > 95
Cc1ccc(C(=O)O)cc1NC(=O)Nc1cccc2ccccc12 | > 95
CCNC(=O)C1(C)CCCN(C(=O)c2nc(C)oc2C)C1 (stereo not drawn) | > 95
O=S(=O)(c1cc(Cl)cc(Cl)c1)N1Cc2cc(-c3ccccc3)ccc2-n2nncc2C1 | > 95
COc1ccc(-c2csc(NC(CO)c3nc4ccccc4n3CCCO)n2)cc1 (stereo not drawn) | > 95
CC(C)(C)OC(=O)NCc1ccc(CNC(=O)c2nc[nH]c2C(=O)N2CCN(C(=O)OC(C)(C)C)CC2)cc1 | > 95
CC(=O)OC[C@@H]1CN(Cc2cccc(C(F)(F)F)c2)C[C@H](n2cnc3c(NCc4ccco4)ncnc32)O1 | > 95
CCCNC(=O)[C@H]1N2C(=O)c3c(ccc(OC)c3OC)C2SC1(C)C (stereo partly drawn) | > 95
COc1ccc(C2CC(C(F)(F)F)n3nc(C(=O)O)c(Cl)c3N2)cc1OC (stereo not drawn) | 53.3
CC(CN1CCCCC1)OC(=O)c1ccc(Cl)cc1Cl (stereo not drawn) | > 95
Cc1nc2c(OCCC3CCCCC3)cccn2c1N(C)C(=O)CCC1CCCC1 | > 95
O=C(Nc1cc(C(F)(F)F)ccc1N1CCCC1)C1CC(=O)N(Cc2ccccc2)C1 (stereo not drawn) | > 95
CCOC(=O)C1(O)CC(C)=NN1C(=O)c1cccc(Br)c1 (stereo not drawn) | > 95
CC1(C)c2ccccc2C(=O)c2ccccc21 | > 95
CC1CCC(NC(=O)C2CCC(CNS(=O)(=O)c3cccc4cccnc34)CC2)CC1 (stereo not drawn) | > 95
COc1cc(C(=O)OCCCOC(=O)c2cc(OC)c(OC)c(OC)c2)cc(OC)c1OC | > 95
COc1ccc(C2CC(O)(c3ccccc3)Oc3cc(OC)ccc32)cc1 (stereo not drawn) | > 95
O=C(NNC(=O)c1ccccc1Cl)c1cccnc1 | > 95
O=C(NCCN1CCOCC1)c1cc(-c2ccc(F)cc2)on1 | > 95

Compound | IC50 [µM]
O=C(CCC(=O)Nc1ccccc1Cl)NN=C1CCCC1 | > 95
CNC(=O)NC(=O)C(C)OC(=O)c1c(C)noc1C (stereo not drawn) | > 95
CCOC(=O)Cc1cnc(NC(=O)NC(C(=O)OCC)(c2ccccc2)C(F)(F)F)s1 (stereo not drawn) | > 95
COc1ccc(-c2csc(NCCc3nc4cc(C(=O)NCCCO)ccc4n3Cc3ccc(C)cc3)n2)cc1 | > 95
Cc1c(NP(=O)(C(C)(C)C)C(C)(C)C)c(=O)n(-c2ccccc2)n1C | > 95
Cc1ccccc1Nc1nc(N)nc(COC(=O)CC2CC3CCC2C3)n1 (stereo not drawn) | > 95
O=C(NNC(=O)C1CCN(c2ncccn2)CC1)c1ccc(F)cc1 | > 95
COC(=O)c1c(NC(=O)CN(c2ccccc2)S(C)(=O)=O)sc2c1CCCC2 | > 95
COC(=O)c1ccc(Cn2nnc3c(=O)[nH]c(C4CCCN(S(=O)(=O)c5cccc(Cl)c5)C4)nc32)cc1 (stereo not drawn) | > 95
COc1ccc(Cn2c3ccc(OC)cc3c3nc4ccccc4nc32)cc1 | > 95
CC(=O)Nc1ccc2nc3c(=O)n(C)c(=O)n(C)c3nc2c1 | > 95
CSc1nc2ccccc2c(=O)n1C1CCOC(C)(C)C1 (stereo not drawn) | > 95
CCCNC(=S)Nc1cccc(C(F)(F)F)c1 | > 95
CN(C)CCn1c(=O)n(-c2ccc(F)cc2)c(=O)c2c3c(sc21)CCCCC3 | > 95
Cc1csc(NC(C)c2nc3cc(C(F)(F)F)ccc3n2CCCO)n1 (stereo not drawn) | > 95
CCN(C[C@H]1N[C@@](CC)(C(=O)OC)[C@H]2C(=O)N(C)C(=O)[C@@H]12)S(=O)(=O)c1ccc(OC)cc1 | > 95
O=C1CCCN1CCCNc1nc(NCc2cccs2)nc2ccsc12 | > 95
CCc1onc(C)c1C(=O)Nc1cc(C)ccc1OC | > 95
Cn1cnc2cc(NC(=O)c3ccco3)ccc21 | > 95
O=C(CCCNC(=O)/C(=C\c1ccc(F)cc1)NC(=O)c1ccccc1)OCc1ccccc1 | > 95
CC(C)(C)N(NC(=O)Nc1ccc(Cl)cc1)C(=O)c1ccccc1 | > 95
O=C(COc1ccc(Br)cc1CO)Nc1ccc(F)cc1 | > 95

Same assay, conditions: NRP-1 b1b2 / RPARPAR peptide binding, FP or AlphaScreen; FP, run 2; individual panel run IC50

Compound | IC50 [µM]
CCOC(=O)N1CCN(C(=O)c2cc3n(n2)C(C(F)(F)F)CC(c2ccc4c(c2)OCO4)N3)CC1 (stereo not drawn) | > 95
O=C(CSc1nc(O)c(Cc2ccccc2)c(=O)n1-c1ccccc1)N1CCOCC1 | > 95
CC(C)(C)n1nc(-c2ccc(F)cc2)c2c(N)ncnc21 | > 95
COc1ccc(-c2cc(C)no2)cc1S(=O)(=O)NCc1cccc(C)c1 | > 95
Cc1cnc(C(=O)OCC(=O)Nc2sc3c(c2C#N)CCC3)cn1 | > 95
Cc1ccc(C(=O)O)cc1NC(=O)Nc1cccc2ccccc12 | > 95
CCNC(=O)C1(C)CCCN(C(=O)c2nc(C)oc2C)C1 (stereo not drawn) | > 95
O=S(=O)(c1cc(Cl)cc(Cl)c1)N1Cc2cc(-c3ccccc3)ccc2-n2nncc2C1 | > 95
COc1ccc(-c2csc(NC(CO)c3nc4ccccc4n3CCCO)n2)cc1 (stereo not drawn) | > 95
CC(C)(C)OC(=O)NCc1ccc(CNC(=O)c2nc[nH]c2C(=O)N2CCN(C(=O)OC(C)(C)C)CC2)cc1 | > 95
CC(=O)OC[C@@H]1CN(Cc2cccc(C(F)(F)F)c2)C[C@H](n2cnc3c(NCc4ccco4)ncnc32)O1 | > 95
CCCNC(=O)[C@H]1N2C(=O)c3c(ccc(OC)c3OC)C2SC1(C)C (stereo partly drawn) | > 95
COc1ccc(C2CC(C(F)(F)F)n3nc(C(=O)O)c(Cl)c3N2)cc1OC (stereo not drawn) | 61.7
CC(CN1CCCCC1)OC(=O)c1ccc(Cl)cc1Cl (stereo not drawn) | > 95
Cc1nc2c(OCCC3CCCCC3)cccn2c1N(C)C(=O)CCC1CCCC1 | > 95
O=C(Nc1cc(C(F)(F)F)ccc1N1CCCC1)C1CC(=O)N(Cc2ccccc2)C1 (stereo not drawn) | > 95
CCOC(=O)C1(O)CC(C)=NN1C(=O)c1cccc(Br)c1 (stereo not drawn) | > 95
CC1(C)c2ccccc2C(=O)c2ccccc21 | > 95
CC1CCC(NC(=O)C2CCC(CNS(=O)(=O)c3cccc4cccnc34)CC2)CC1 (stereo not drawn) | > 95
COc1cc(C(=O)OCCCOC(=O)c2cc(OC)c(OC)c(OC)c2)cc(OC)c1OC | > 95
COc1ccc(C2CC(O)(c3ccccc3)Oc3cc(OC)ccc32)cc1 (stereo not drawn) | > 95
O=C(NNC(=O)c1ccccc1Cl)c1cccnc1 | > 95
O=C(NCCN1CCOCC1)c1cc(-c2ccc(F)cc2)on1 | > 95

Compound | IC50 [µM]
O=C(CCC(=O)Nc1ccccc1Cl)NN=C1CCCC1 | > 95
CNC(=O)NC(=O)C(C)OC(=O)c1c(C)noc1C (stereo not drawn) | > 95
CCOC(=O)Cc1cnc(NC(=O)NC(C(=O)OCC)(c2ccccc2)C(F)(F)F)s1 (stereo not drawn) | > 95
COc1ccc(-c2csc(NCCc3nc4cc(C(=O)NCCCO)ccc4n3Cc3ccc(C)cc3)n2)cc1 | > 95
Cc1c(NP(=O)(C(C)(C)C)C(C)(C)C)c(=O)n(-c2ccccc2)n1C | > 95
Cc1ccccc1Nc1nc(N)nc(COC(=O)CC2CC3CCC2C3)n1 (stereo not drawn) | > 95
O=C(NNC(=O)C1CCN(c2ncccn2)CC1)c1ccc(F)cc1 | > 95
COC(=O)c1c(NC(=O)CN(c2ccccc2)S(C)(=O)=O)sc2c1CCCC2 | > 95
COC(=O)c1ccc(Cn2nnc3c(=O)[nH]c(C4CCCN(S(=O)(=O)c5cccc(Cl)c5)C4)nc32)cc1 (stereo not drawn) | > 95
COc1ccc(Cn2c3ccc(OC)cc3c3nc4ccccc4nc32)cc1 | > 95
CC(=O)Nc1ccc2nc3c(=O)n(C)c(=O)n(C)c3nc2c1 | > 95
CSc1nc2ccccc2c(=O)n1C1CCOC(C)(C)C1 (stereo not drawn) | > 95
CCCNC(=S)Nc1cccc(C(F)(F)F)c1 | > 95
CN(C)CCn1c(=O)n(-c2ccc(F)cc2)c(=O)c2c3c(sc21)CCCCC3 | > 95
Cc1csc(NC(C)c2nc3cc(C(F)(F)F)ccc3n2CCCO)n1 (stereo not drawn) | > 95
CCN(C[C@H]1N[C@@](CC)(C(=O)OC)[C@H]2C(=O)N(C)C(=O)[C@@H]12)S(=O)(=O)c1ccc(OC)cc1 | > 95
O=C1CCCN1CCCNc1nc(NCc2cccs2)nc2ccsc12 | > 95
CCc1onc(C)c1C(=O)Nc1cc(C)ccc1OC | > 95
Cn1cnc2cc(NC(=O)c3ccco3)ccc21 | > 95
O=C(CCCNC(=O)/C(=C\c1ccc(F)cc1)NC(=O)c1ccccc1)OCc1ccccc1 | > 95
CC(C)(C)N(NC(=O)Nc1ccc(Cl)cc1)C(=O)c1ccccc1 | > 95
O=C(COc1ccc(Br)cc1CO)Nc1ccc(F)cc1 | > 95
